Numbered stars: 1 amine (or outer) side, 2 acyl side, 3 side chain; on linkers, the order of the positions; unused ones are H or OH. Bridge positions count the residues as written; N and C are the ends. Square brackets hold non-standard residues; d marks the D form. Peptide text beside a SMILES is read from it. ξ: configuration not given here. X8 = O=C(C[C@@H](CCc1ccc(-c2ccc(OCCCc3ccccc3)cc2)cc1)N[*:2])[*:1]; X13 = CCCCCOc1ccc(-c2ccc(CC[C@H](CC(=O)[*:1])N[*:2])cc2)cc1; X10 = CCCCCCCCCOc1ccc2cc(CC[C@H](CC(=O)[*:1])N[*:2])ccc2c1; X12 = NCC(=O)Nc1cc(CC(N[*:1])C(=O)[*:2])ccc1O; X9 = CCCCCCCCCCCCC[C@H](CC(=O)[*:1])O[*:2]; X2 = NC(=O)CC(O)C(N[*:1])C(=O)[*:2]; X1 = O=C(C1C(O)CCN1[*:1])[*:2]; ξY = NC(Cc1ccc(O)cc1)C(=O)O; ξHyp = O=C(O)C1CC(O)CN1; ξOrn = NCCCC(N)C(=O)O; ξT = CC(O)C(N)C(=O)O; ξV = CC(C)C(N)C(=O)O; ξP = O=C(O)C1CCCN1; ξA = CC(N)C(=O)O; Sar = CNCC(=O)O
What was measured:
[1] = tested on: mouse hepatocytes; test: In vitro hepatotoxicity test; format: cell-based; settings: mouse hepatocyte monolayers exposed 1 day, morphological evaluation
From the text: The mouse hepatocytes were isolated by a collagenase digestion and cultured in microtest plates. The hepatocyte monolayers were exposed to the test Aerothricins in the culture system for 1 day. After the culture period, the hepatocytes were observed under a microscope and evaluated morphologically. The degree of the morphological alteration (degeneration) of the hepatocytes by the test Aerothricins were compared with WF 11243 and LY303366.

[2] = tested on: Candida albicans; test: In vivo antifungal efficacy, systemic candidiasis in mice; parameters: species or system Crj: CD-1 (ICR) mice; settings: i.v., b.i.d×1 day followed by q.d.×2 days; from survival on day 14
Procedure: Mice of a conventional immunocompetent mouse strain, Crj: CD-1 (ICR) were used for experimental infection models of systemic candidiasis. 4 weeks old Crj: CD-1 (ICR) mice were used for systemic candidiasis by injecting Candida albicans 5×10^6 conidia/mouse via the tail vein. Treatments were given twice (0, 4 h after infection) on the first day and once daily on following 2 days for systemic candidiasis (b.i.d×1 day followed by q.d.×2 days), intravenously (i.v.). 50% of effective dose (ED50) values was calculated from the survival number at each dose on day 14.

| Compound | Cytotoxicity to hepatocyte [1] | In vivo antifungal activity against systemic candidiasis in mice, ED50 on day 14 [2] |
| --- | --- | --- |
| CCCCCCCCCCOc1ccc(CC[C@@H]2CC(=O)NC(C(C)O)C(=O)NC(C)C(=O)NC(Cc3ccc(O)cc3)C(=O)NC(C(C)C)C(=O)N3CC(O)CC3C(=O)NC(C(C)O)C(=O)NC(C(C)O)C(=O)N3CCC(O)C3C(=O)NC(C(O)CC(N)=O)C(=O)NCC(=O)NC(C(C)O)C(=O)NC(CCCN)C(=O)N2)cc1 (single isomer, unassigned) [Aerothricin 47] | >100 µg/mL |  |
| CCCCCCCCCCCCC[C@@H]1CC(=O)NC(C(C)O)C(=O)NC(C)C(=O)NC(Cc2ccc(OC)cc2)C(=O)NC(C(C)C)C(=O)N2CC(O)CC2C(=O)NC(C(C)O)C(=O)NC(C(C)O)C(=O)N2CCC(O)C2C(=O)NC(C(O)CC(N)=O)C(=O)NCC(=O)NC(C(C)O)C(=O)NC(CCCN)C(=O)O1 (some centres unmarked) [Aerothricin 5] ([ξT][ξA][ξY](Me)[ξV][ξHyp][ξT][ξT][X1][X2]G[ξT][ξOrn]; linker N-C via X9) |  | 0.3 mg/kg |
| CCCCCCCCCCCCC[C@@H]1CC(=O)NC(C(C)O)C(=O)NC(C)C(=O)NC(Cc2ccc(O)c(NC(=O)CN)c2)C(=O)NC(C(C)C)C(=O)N2CC(O)CC2C(=O)NC(C(C)O)C(=O)NC(C(C)O)C(=O)N2CCC(O)C2C(=O)NC(C(O)CC(N)=O)C(=O)NCC(=O)NC(C(C)O)C(=O)NC(CCCNC(=O)CN)C(=O)O1 (some centres unmarked) [Aerothricin 21] ([ξT][ξA][X12][ξV][ξHyp][ξT][ξT][X1][X2]G[ξT][ξOrn](Gly); linker N-C via X9) | >100 µg/mL |  |
| CC1NC(=O)C(C(C)O)NC(=O)C[C@@H](CCc2ccc(-c3ccc(OCCCc4ccccc4)cc3)cc2)NC(=O)C(CCCN)NC(=O)C(C(C)O)NC(=O)CNC(=O)C(C(O)CC(N)=O)NC(=O)C2C(O)CCN2C(=O)C(C(C)O)NC(=O)C(C(C)O)NC(=O)C2CC(O)CN2C(=O)C(C(C)C)NC(=O)C(Cc2ccc(O)cc2)NC1=O (some centres unmarked) [Aerothricin 46] ([ξT][ξA][ξY][ξV][ξHyp][ξT][ξT][X1][X2]G[ξT][ξOrn]; linker N-C via X8) |  | 0.4 mg/kg |
| CCCCCOc1ccc(-c2ccc(CC[C@@H]3CC(=O)NC(C(C)O)C(=O)NC(C)C(=O)NC(Cc4ccc(O)cc4)C(=O)NC(C(C)C)C(=O)N4CC(O)CC4C(=O)NC(C(C)O)C(=O)NC(C(C)O)C(=O)N4CCC(O)C4C(=O)NC(C(O)CC(N)=O)C(=O)NCC(=O)NC(C(C)O)C(=O)NC(CCCN)C(=O)N3)cc2)cc1 (some centres unmarked) [Aerothricin 41] ([ξT][ξA][ξY][ξV][ξHyp][ξT][ξT][X1][X2]G[ξT][ξOrn]; linker N-C via X13) |  | 0.3 mg/kg |
| CCCCCCCCCOc1ccc2cc(CC[C@@H]3CC(=O)NC(C(C)O)C(=O)NC(C)C(=O)NC(Cc4ccc(O)cc4)C(=O)NC(C(C)C)C(=O)N4CC(O)CC4C(=O)NC(C(C)O)C(=O)NC(C(C)O)C(=O)N4CCC(O)C4C(=O)NC(C(O)CC(N)=O)C(=O)NCC(=O)NC(C(C)O)C(=O)NC(CCCN)C(=O)N3)ccc2c1 (some centres unmarked) [Aerothricin 53] ([ξT][ξA][ξY][ξV][ξHyp][ξT][ξT][X1][X2]G[ξT][ξOrn]; linker N-C via X10) | >100 µg/mL |  |
| CCCCCCCCCCCCC[C@@H]1CC(=O)NC(C(C)O)C(=O)NC(C)C(=O)NC(Cc2ccc(O)cc2)C(=O)NC(C(C)C)C(=O)N2CC(O)CC2C(=O)NC(C(C)O)C(=O)NC(C(C)O)C(=O)N2CCC(O)C2C(=O)NC(C(O)CC(N)=O)C(=O)NCC(=O)NC(C(C)O)C(=O)NC(CCCNC(=O)CNC)C(=O)O1 (some centres unmarked) [Aerothricin 14] ([ξT][ξA][ξY][ξV][ξHyp][ξT][ξT][X1][X2]G[ξT][ξOrn](Sar); linker N-C via X9) | >100 µg/mL |  |
| CCCCCCCCCCCCC[C@@H]1CC(=O)NC(C(C)O)C(=O)NC(C)C(=O)NC(Cc2ccc(O)cc2)C(=O)NC(C(C)C)C(=O)N2CC(O)CC2C(=O)NC(C(C)O)C(=O)NC(C(C)O)C(=O)N2CCC(O)C2C(=O)NC(C(O)CC(N)=O)C(=O)NCC(=O)NC(C(C)O)C(=O)NC(CCCNC(=O)C2CCCN2)C(=O)O1 (some centres unmarked) [Aerothricin 15] ([ξT][ξA][ξY][ξV][ξHyp][ξT][ξT][X1][X2]G[ξT][ξOrn](ξP); linker N-C via X9) | >100 µg/mL |  |
